Laboratory results reported in the supplement of paper PMC10307832.

Assays:
Experiment in all cases: relative viability (nuclei count vs DMSO), 5 days (fraction); higher = more cells survive
[1] = compound: CN(c1ncccc1CNc1nc(Nc2ccc3c(c2)CC(=O)N3)ncc1C(F)(F)F)S(C)(=O)=O + Cc1nc(NC(=O)N2CCC[C@H]2C(N)=O)sc1-c1ccnc(C(C)(C)C(F)(F)F)c1 [Alpelisib] (partner 2 µM)
In short: (§1)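 Medians of duplicate plates are given as relative viability. That measure is the nuclei count in treated wells divided by the count in vehicle wells. Counts were taken on 4× images of lung cancer cell lines in 1536-well plates, 5 days after pin-tool dosing the day after seeding with one drug alone or a fixed anchor-drug dose plus five library-drug doses (not always all listed) in √10 steps.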

[2] = compound: CN(c1ncccc1CNc1nc(Nc2ccc3c(c2)CC(=O)N3)ncc1C(F)(F)F)S(C)(=O)=O + CS(=O)(=O)N1CCN(Cc2cc3nc(-c4cccc5[nH]ncc45)nc(N4CCOCC4)c3s2)CC1 [Pictilisib] (partner 1 µM)
In short: as §1

[3] = compound: CN(c1ncccc1CNc1nc(Nc2ccc3c(c2)CC(=O)N3)ncc1C(F)(F)F)S(C)(=O)=O + Nc1ncn([C@H]2C[C@H](O)[C@@H](CO)O2)c(=O)n1 [Decitabine] (partner 2 µM)
In short: as §1

[4] = compound: CN(c1ncccc1CNc1nc(Nc2ccc3c(c2)CC(=O)N3)ncc1C(F)(F)F)S(C)(=O)=O + C[C@]1(O)C[C@@H](c2nc(-c3ccc4ccc(-c5ccccc5)nc4c3)c3c(N)nccn32)C1 [Linsitinib] (partner 1 µM)
In short: as §1

| Cell Line | relative viability ([1]; first compound 0.01 µM) | relative viability ([1]; first compound 0.03162 µM) | relative viability ([1]; first compound 0.1 µM) | relative viability ([1]; first compound 0.3162 µM) | relative viability ([1]; first compound 1 µM) | relative viability ([2]; first compound 0.01 µM) | relative viability ([2]; first compound 0.03162 µM) | relative viability ([2]; first compound 0.1 µM) | relative viability ([2]; first compound 0.3162 µM) | relative viability ([2]; first compound 1 µM) | relative viability ([3]; first compound 0.01 µM) | relative viability ([3]; first compound 0.03162 µM) | relative viability ([3]; first compound 0.1 µM) | relative viability ([3]; first compound 0.3162 µM) | relative viability ([3]; first compound 1 µM) | relative viability ([4]; first compound 0.01 µM) | relative viability ([4]; first compound 0.03162 µM) | relative viability ([4]; first compound 0.1 µM) | relative viability ([4]; first compound 0.3162 µM) | relative viability ([4]; first compound 1 µM) |
| --- | --- | --- | --- | --- | --- | --- | --- | --- | --- | --- | --- | --- | --- | --- | --- | --- | --- | --- | --- | --- |
| NCI-H1993 | 0.739 | 0.632 | 0.612 | 0.663 | 0.674 | 0.832 | 0.754 | 0.856 | 0.828 | 0.775 | 0.624 | 0.609 | 0.56 | 0.574 | 0.605 | 0.678 | 0.727 | 0.78 | 0.771 | 0.736 |
| NCI-H1437 | 0.973 | 1.13 | 1.05 | 0.941 | 0.788 | 0.424 | 0.468 | 0.557 | 0.41 | 0.546 | 0.535 | 0.661 | 0.502 | 0.498 | 0.422 | 0.988 | 1.08 | 1.08 | 0.978 | 0.951 |
| UMC-11 | 1 | 1.06 | 0.901 | 0.809 | 0.787 | 0.759 | 0.843 | 0.793 | 0.847 | 0.708 | 0.568 | 0.681 | 0.626 | 0.838 | 0.628 | 0.979 | 1.02 | 1.03 | 0.952 | 0.781 |
| 201T | 1.01 | 0.989 | 0.971 | 0.968 | 0.976 | 0.697 | 0.666 | 0.613 | 0.675 | 0.647 | 0.846 | 0.856 | 0.808 | 0.85 | 0.771 | 1.05 | 1.04 | 1.04 | 1.01 | 0.995 |
| NCI-H358 | 1.03 | 0.824 | 0.737 | 0.753 | 0.669 | 0.276 | 0.351 | 0.275 | 0.347 | 0.243 | 0.195 | 0.221 | 0.251 | 0.221 | 0.183 | 0.739 | 0.727 | 0.626 | 0.705 | 0.666 |
| LOU-NH91 | 0.75 | 0.792 | 0.703 | 0.771 | 0.762 | 0.519 | 0.548 | 0.504 | 0.551 | 0.575 | 0.863 | 0.832 | 0.812 | 0.844 | 0.839 | 0.988 | 1.02 | 1.02 | 1.08 | 1.11 |
| HOP-62 | 0.909 | 1.25 | 1.06 | 0.84 | 0.772 | 0.784 | 0.899 | 0.793 | 0.853 | 0.643 | 0.208 | 0.212 | 0.256 | 0.211 | 0.245 | 0.843 | 1.09 | 1.06 | 0.786 | 0.933 |
| NCI-H1915 | 1.07 | 1.1 | 1.03 | 1.05 | 1.02 | 1.01 | 0.826 | 0.905 | 1.01 | 0.939 | 0.278 | 0.258 | 0.264 | 0.247 | 0.256 | 1.1 | 1.1 | 0.983 | 1.1 | 1.02 |
| NCI-H3122 | 0.748 | 0.982 | 0.684 | 0.822 | 0.728 | 0.599 | 0.673 | 0.627 | 0.572 | 0.584 | 0.445 | 0.423 | 0.395 | 0.429 | 0.403 | 1.02 | 1.06 | 0.939 | 0.966 | 0.843 |
| NCI-H1651 | 0.992 | 1 | 0.873 | 0.899 | 0.916 | 0.523 | 0.617 | 0.601 | 0.596 | 0.546 | 0.657 | 0.695 | 0.623 | 0.713 | 0.576 | 0.996 | 0.999 | 1.25 | 0.994 | 0.993 |
| NCI-H838 | 0.961 | 1.17 | 1.01 | 0.862 | 0.705 | 0.431 | 0.482 | 0.471 | 0.448 | 0.395 | 0.46 | 0.472 | 0.5 | 0.444 | 0.397 | 0.981 | 1.07 | 1.02 | 0.83 | 0.745 |
| NCI-H596 | 0.58 | 0.48 | 0.482 | 0.48 | 0.392 | 0.409 | 0.37 | 0.428 | 0.456 | 0.37 | 1.15 | 1.01 | 1.11 | 1.03 | 1.13 | 1 | 1.12 | 1.02 | 1.05 | 0.896 |
| SK-LU-1 | 0.929 | 1.25 | 0.988 | 0.988 | 0.928 | 0.519 | 0.53 | 0.473 | 0.554 | 0.423 | 0.641 | 0.689 | 0.636 | 0.639 | 0.576 | 0.936 | 1.12 | 0.966 | 1.02 | 0.97 |
| NCI-H441 | 0.624 | 0.65 | 0.557 | 0.793 | 0.614 | 0.554 | 0.516 | 0.527 | 0.527 | 0.508 | 0.3 | 0.25 | 0.264 | 0.261 | 0.224 | 0.457 | 0.707 | 0.513 | 0.583 | 0.536 |
| NCI-H650 | 1.01 | 1.23 | 0.945 | 0.832 | 0.725 | 0.961 | 1.15 | 0.671 | 0.639 | 0.842 | 0.316 | 0.351 | 0.342 | 0.285 | 0.307 | 0.948 | 0.696 | 0.644 | 0.764 | 0.76 |
| SK-MES-1 | 0.915 | 0.926 | 0.843 | 0.882 | 0.712 | 0.401 | 0.322 | 0.293 | 0.311 | 0.367 | 0.441 | 0.467 | 0.465 | 0.36 | 0.363 | 1.04 | 1.06 | 1.08 | 0.925 | 1.01 |
